Assay results as given in patent US20250332183A1, “COMPOSITIONS AND METHODS FOR THE STIMULATION OF INTERMEDIATE MACROPHAGES AND TREATMENTS THEREWITH” (priority 2024, published 2025).
Entries after “also recorded” stand apart in the source; their conditions may differ.

Key:
[1] = test system: preterm lamb model of BPD; assay: Respiratory system mechanics (ventilator, forced oscillation technique, methacholine challenge); assay type: in vivo
Protocol: Respiratory system mechanics assessments with methacholine challenge. The respiratory system mechanics were assessed for the early-stage study (DOL1-10) and late-stage study (DOL10-90). For the early-stage research, the Drager ventilator recorded respiratory system mechanics every 5 min while the PT lambs were intubated and mechanically ventilated. The parameters were dynamic lung compliance and resistance. The inventors averaged the parameters every 12 h.
For the early and late-stage studies, after the lambs were extubated and transitioned to noninvasive respiratory support and spontaneously breathing (DOL7-10) and thereafter to DOL90, the inventors used forced oscillometry (FOT; model Tremoflo N-100; Thorasys, Thoracic Medical Systems Inc., Montreal, QC, Canada), with a filter (Humid-Vent Filter Small A, Teleflex Medical, Ireland). This instrument, validated in term and PT human infants,^18 allows the measurement of respiratory system mechanics in uncooperative subjects (not intubated and breathing spontaneously) by applying a pressure stimulus at the airway opening and measuring the resulting flow. The inventors used a small canine mask (product number 93815026; Midmark Corp., Versailles, OH). The FOT device was calibrated daily, and the use followed the manufacturer's instructions. The inventors used the standard TremoFlo-supplied software without modifications. The software enables post hoc inspection of the measurement time course. As recommended by the manufacturer, any measurement with a leak was discarded. FOT measurements were made for the FPT lambs at 1 month corrected postnatal age (1 moC; DOL60) and 2 moC (DOL90). The comparison time points for term reference lambs were matched for corrected postnatal age.
FOT analysis was done on lambs that stood prone, supported by a veterinary sling. The lambs were given Lorazepam (0.1 mg/Kg, intramuscularly) to keep them calm. The mask was placed over their muzzle and held in place by a tender. The lambs were habituated to the sling and mask before testing was done. FOT was used to measure respiratory system resistance and reactance in four steps: (1) baseline, (2) bronchodilator (albuterol), (3) bronchoconstrictor (methacholine challenge), and (4) bronchodilator (albuterol). The inventors used an Aeroneb Pro nebulizer (Aerogen Ltd, Galway, Ireland) connected to the mask. The inventors repeatedly measured tissue O2 saturation by pulse oximetry, heart rate, and blood pressure. After the baseline measurement, the inventors nebulized albuterol (1.5 mL; Hi-Tech Pharmacal Co., Amityville, NY) to dilate the airways in each lamb before methacholine challenge. Airway responsiveness was assessed during stepwise increases in nebulized methacholine (Provocholine; Pancap, Inc., Markham, Ontario, Canada), according to the ATS 1999 guideline^19 and reported by the inventors for FPT and term reference lambs.^14 Methacholine concentration was doubled for each step, starting from 0.06 mg/mL up to a maximum concentration of 4.00 mg/mL. At the end of the methacholine challenge steps, 1.5 mL of albuterol was nebulized to dilate the airways. All lambs tolerated the procedure, which took 45-60 min.

[2] = test system: IL-1β, IL-6, IL-10 and soluble CD163 in lamb plasma; assay: Plasma cytokine and soluble CD163 ELISA in lambs; assay type: in vivo; conditions: early-stage study, PT lambs vs vehicle
Description: (§1) ELISA: The serum and bronchoalveolar lavage (BAL) fluid samples were used to quantify cytokine and soluble CD163 (sCD163) concentrations. The ELISA experiment analysis used commercially available ELISA kits, which were quantified using a plate reader. The inventors used GraphPad Prism V. 10.4. All sheep (ovine) ELISA kits were used within the expiry dates. Ovine IL-1β(Cat #ELO-IL1β), and ovine IL-6 (Cat #ELO-IL6) ELISA kits were purchased from RayBiotech, Peachtree Corners, GA, USA, sheep IL-10 (Cat #E12817Sh-96) was purchased from Lifeome Biolabs, Oceanside, CA, sheep CD163 (cat #MBS9364870) was purchased from MyBioSource, Inc. San Diego, CA, and Pierce™ BCA Protein Assay Kit (Cat #23227) from Thermo Fischer Scientific, Rockford, IL.

[3] = test system: bronchoalveolar lavage fluid (BALf); assay: Total protein (BCA) and TNF-α in lamb bronchoalveolar lavage fluid; assay type: in vivo
Description: ELISA and BCA assay methods. BCA assay: The lamb BAL fluid samples (10d and 90d terminal studies) were centrifuged to remove the cell pellets, and the supernatant was used to assess the total protein using the Pierce™ BCA Protein Assay Kits, which were read using a BioTek synergy H1 microplate reader (Fisher Scientific, Toronto, ON, Canada).
as §1

[4] = test system: cord blood mononuclear cells (CBMCs); assay: Cytokine profile in LPS-challenged CBMCs; assay type: cell-based, human; conditions: compound 100 μM + LPS 50 ng/mL vs LPS treated cells
Protocol: FIGS. 15A TO 15F show the AVR-48 cytokine profile in CBMCs. Cells treated with AVR-48 [100 μM], LPS [50 ng/mL] and AVR-48+LPS show a decrease (˜2-4-fold) in cytokine signal in (FIG. 15A) TNF-α, (FIG. 15B) IL-1β, (FIG. 15C) IL-10, (FIG. 15D) IL-12, (FIG. 15E) IL-6, and (FIG. 15F) IL-8, and indicates a reduced […] response as compared to LPS treated cells solo. N=3, One-way ANOVA was used for analysis.
CBMCs were treated with either AVR-123 [100 μM], LPS [50 ng/mL] or AVR-123+LPS for 24 h. […] (FIG. 23G) AVR-123 decreases phosphorylated NFkB alone and when combined with LPS in CBMCs via western blot analysis. N=3, One-way ANOVA.

[5] = FOT, d90, FPT lambs vs FPT vehicle
[6] = ventilator-measured, invasive mechanical ventilation DOL1-7, PT lambs vs vehicle

## CC(=O)NC1C(Oc2ccc([N+](=O)[O-])cc2)OC(CO)C(O)C1O (centres unmarked) [AVR-48]
[1]; FOT, DOL 60, late-stage study
  resistance and reactance of the respiratory system: No significant difference
[1]; [5]
  baseline reactance at 5 and 10 Hz (upper and large airways): significantly less negative
  baseline resistance at 5 Hz (upper and large airways): significantly lower
  reactance at 5 and 10 Hz after methacholine challenge: significantly less negative
  reactance at 7-20 Hz after albuterol nebulization: less negative reactance
  resistance at 5 Hz after methacholine challenge: significantly lower resistance
  resistance at 7-20 Hz after albuterol nebulization: significantly lower resistance
[1]; FOT, end of early-stage study (DOL10), PT lambs 3.0 mg/kg vs vehicle
  respiratory system resistance in large (5 Hz), middle (7-20 Hz), and small (41 Hz) airways: significantly lower resistance
[1]; FOT, end of early-stage study (DOL10), PT lambs vs vehicle
  airway reactance AX (area under the curve below zero): significantly lower
[1]; [6]
  dynamic lung compliance: No statistically significant differences; also recorded: consistently lower
  lung resistance: No statistically significant differences
[2]; 6-10 h
  plasma concentration of IL-1β: significantly lower
[2]; 72-75 h
  plasma concentration of IL-6: significantly lower
[2]; 138-150 h
  plasma concentration of IL-10: significantly higher
[3]; 10 days, PT lambs vs vehicle
  total protein concentration in BALf: decreased total protein concentration
[3]; 90 days, FPT lambs
  total protein concentration in BALf: no difference was observed
[3]; early and late-stage studies
  TNF-α concentration in BALf: No significant change
[4]
  decrease in IL-1β: 2-4 fold
  decrease in IL-6: 2-4 fold
  decrease in IL-8: 2-4 fold
  decrease in IL-10: 2-4 fold
  decrease in IL-12: 2-4 fold
  decrease in TNF-α: 2-4 fold
